Here are results for one compound from patent publication US20230023092A1, “TREATMENT OF DEPRESSION AND OTHER VARIOUS DISORDERS WITH PSILOCYBIN” (COMPASS […], priority 2019, published 2023).

One data set relates to healthy subjects. Description: Toronto Empathy Questionnaire (TEQ). Type of data set: in vivo, human. The following applies: Day 7. An excerpt: In some embodiments, the Toronto Empathy Questionnaire (TEQ) is utilized to evaluate the safety and/or efficacy of psilocybin. The TEQ represents empathy as a primarily emotional process. […] The TEQ is a brief, reliable and valid instrument for the assessment of empathy. In some embodiments, after treating according to the methods of the disclosure, a subject's TEQ score increases by about 5%, about 10%, about 15%, about 20%, about 25%, about 30%, about 35%, about 40%, about 45%, about 50%, about 55%, about 60%, about 65%, about 70%, about 75%, about 80%, about 85%, about 90%, about 95%, or about 100%, about 110%, about 120%, about 130%, about 140%, about 150%, about 160%, about 170%, about 180%, about 190%, about 200%, about 210%, about 220%, about 230%, about 240%, about 250%, about 260%, about 270%, about 280%, about 290%, or about 300%, or more, compared to prior to treatment.
The Pictorial Empathy Test (PET), Reading the Mind in the Eyes Test (RMET), Scale of Social Responsibility (SSR), Social Value Orientation (SVO), and Toronto Empathy Questionnaire (TEQ) were performed. Table 20 summarizes the results of the mixed model for repeated measures (MMRM) analysis for each of the aforementioned social cognition panel scales measured on Day 7 and Day 84 after study drug administration.

Another data set deals with subjects. The following applies: prevalence unknown but likely; cited from earlier work.

In the case of `CN(C)CCc1c[nH]c2cccc(OP(=O)(O)O)c12` [Psilocybin, psilocybin], the “TEQ change from baseline (LS mean)” value was −0.1 with healthy subjects (psilocybin 10 mg) and 0.0 with healthy subjects (psilocybin 25 mg). The figures for the “TEQ change from baseline, LS mean difference” value in the data set with healthy subjects (psilocybin 10 mg - placebo), in the data set with healthy subjects (psilocybin 25 mg - 10 mg) and with healthy subjects (psilocybin 25 mg - placebo) were 0.1, 0.1 and 0.2, respectively. Moreover, in the data set with subjects, the “Frequency of rare side effects: HPPD/flashbacks; worsening of mental state after drug experience” value is on record as “unknown but likely <2%)”.
